Measured values reported in PMC8915582, “Validated DBS method for filgotinib quantitation in rat dried blood spots and its application to a pharmacokinetic study in rats” (ADMET & DMPK, 2020).
Where two headings read alike, the source gives them in different places.

Assays:
rheumatoid arthritis = test system: rheumatoid arthritis; parameters: method as in PMID 26994322; conditions: approved pan-JAK inhibitors, moderate to severe rheumatoid arthritis; cited from earlier work
[1] = Pharmacokinetic study in rats (oral and intravenous), filgotinib quantified from dried blood spots by LC-MS/MS; type: in vivo; conditions: male, Sprague Dawley, whole blood (dried blood spots), rat, DBS blood
Experimental: Freshly drawn rat blood was used to prepare the DBS cards. With the help of a calibrated pipette, 25 μL of the respective spiked CC/QC blood or whole blood collected from the pharmacokinetic study (post administration of filgotinib by intravenous and oral routes) was sampled on DBS card. Spiked cards were allowed to dry at ambient room temperature for 3 h and stored appropriately in a sealed bag with desiccant in a desiccator.
Using a hole puncher (Harri-Micro-Punch®), 3 mm diameter disc was punched from the center of each DBS (FTA DMPK-C Card) card directly into micro-centrifuge tubes. To each micro-centrifuge tube, 200 μL of 0.2% formic acid enriched with 100 ng/mL of IS was added, thereafter the contents were vortex mixed for 5 min (Thermomixer®, Eppendorf) and sonicated (Elmasonic S300 H) for 15 min at ambient room temperature. After sonication, to the same micro-centrifuge, 1.0 mL of ethyl acetate was added and the mixtures were vortexed further for 3 min. The samples were centrifuged at 14,000 rpm for 3 min. Clear organic layer (800 μL) was pipetted out after centrifugation and dried under gentle stream of nitrogen (Turbovap®, Zymark®,Kopkinton, MA, USA) at 50 °C. The residue was reconstituted with 200 μL of 0.2% formic acid in acetonitrile and 150 μL clear supernatant was aliquoted into a HPLC vial and 5.0 μL was injected onto the column for LC-MS/MS analysis.
All the animal experiments were approved by Institutional Animal Ethical Committee (IAEC/JDC/2019/189R). Male Sprague Dawley rats (n=8) were procured from Vivo Biotech, Hyderabad, India. The animals were housed in Jubilant Biosys animal house facility in a temperature (22 ± 2 °C) and humidity (30-70%) controlled room (15 air changes/hour) with a 12:12 h light:dark cycles, had free access to rodent feed (Altromin Spezialfutter GmbH & Co. KG., Im Seelenkamp 20, D-32791, Lage, Germany) and water for one week before using for experimental purpose. Following ~12 h fast (during the fasting period animals had free access to water) animals were divided into two groups having four rats in each group. Group I animals (205-210) received filgotinib orally as a suspension formulation (prepared using Tween-80 and 0.5% methyl cellulose) at 10 mg/kg (strength: 1.0 mg/mL; dose volume: 10 mL/kg), whereas Group II animals (215-225 g) received filgotinib intravenously (5% DMSO, 5% Solutol:absolute alcohol (1:1, v/v) and 90% of normal saline; strength: 0.5 mg/ml; dose volume: 4 ml/kg) at 2.0 mg/kg dose. Post-dosing serial blood samples (50 μL) were collected through retro-orbital plexus into polypropylene tubes containing K2.EDTA solution as an anti-coagulant at 0.25, 0.5, 1, 2, 4, 8, 10, 12 and 24 h (for oral study) and 0.083, 0.25, 0.5, 1, 2, 4, 8 and 24 h (for intravenous study). Animals were allowed to access feed 2 h post-dosing.
Blood concentration-time data of filgotinib was analyzed by non-compartmental method and the relevant pharmacokinetic parameters namely AUC0-∞ (area under the blood concentration-time curve from time zero to infinite time), C0 (extrapolated blood concentration at time zero), Cmax (maximum blood concentration), Tmax (time to reach Cmax), Vd (volume of distribution), CL (clearance) and t½ (terminal half-life) were calculated using Phoenix WinNonlin software (version 8.1; Pharsight Corporation, Mountain View, CA). Absolute oral bioavailability (F) was calculated using this formula [Dose (i.v.) × AUC(0-∞)oral / Dose (oral) × AUC(0-∞)i.v.] × 100.

[2] = Stability of primary stock solutions in DMSO; type: physicochemical; conditions: primary stock in DMSO stored at -20 °C
Experimental: Two separate primary stock solutions of filgotinib were prepared at 1670 μg/mL in DMSO. Appropriate secondary and working stocks of filgotinib were prepared from primary stock by successive dilution of primary stock with methanol:water (80:20, v/v) to prepare the calibration curve (CC) and quality controls (QCs). The IS primary stock solution was made in DMSO at a concentration of 1000 μg/mL, which was diluted with methanol to 500 ng/mL and subsequently used as IS working stock solution. […] Working stock solutions were stored at 4 °C for 25 days.

[3] = parameters: method as in Dixit et al. (2020) [10]; conditions: rat, plasma, values in parentheses, ref Dixit et al. (2020) [10], cited from earlier work
[4] = test system: collagen-induced arthritis model; parameters: method as in PMID 24006460; conditions: post oral administration in rodents; cited from earlier work
[5] = test system: rheumatoid arthritis patients; parameters: method as in PMID 29566740; conditions: monotherapy at 100 or 200 mg once daily or with methotrexate; cited from earlier work
JAK1 = conditions: cited from earlier work
JAK2 = conditions: JAK1 over JAK2; cited from earlier work

CCS(=O)(=O)N1CC(CC#N)(n2cc(-c3ncnc4[nH]ccc34)cn2)C1 [baricitinib]
toxicities (rheumatoid arthritis): dose-related toxicities

O=C(Nc1nc2cccc(-c3ccc(CN4CCS(=O)(=O)CC4)cc3)n2n1)C1CC1 [filgotinib]
AUC(0-inf) ([1]; intravenous, 2.0 mg/kg): 1800 ± 188 ng·h/mL
Vd ([1]; intravenous, 2.0 mg/kg): 4.17 ± 0.33 L/kg
clearance ([1]; intravenous, 2.0 mg/kg): 18.7 ± 1.86 mL/min/kg
half-life ([1]; intravenous, 2.0 mg/kg): 3.52 ± 0.23 h
C0 ([1]; intravenous, 2.0 mg/kg, extrapolated concentration at time zero): 1600 ± 55.5 ng/mL
bioavailability ([1]; oral 10 mg/kg vs intravenous 2.0 mg/kg, read-out: F (absolute oral bioavailability)): 42.5%
AUC(0-inf) ([1]; oral, 10 mg/kg): 3720 ± 329 ng·h/mL
Cmax ([1]; oral, 10 mg/kg): 804 ± 78.4 ng/mL
Tmax ([1]; oral, 10 mg/kg): 0.5 h
half-life ([1]; oral, 10 mg/kg): 4.87 ± 0.45 h
time primary stock solution found to be stable [2]: 50 days
AUC(0-∞) ([3]; intravenous, 2.0 mg/kg): 1912 ± 123 ng·h/mL
C0 ([3]; intravenous, 2.0 mg/kg): 1767 ± 128 ng/mL
CL ([3]; intravenous, 2.0 mg/kg): 17.4 ± 1.08 mL/min/kg
T1/2 ([3]; intravenous, 2.0 mg/kg): 3.56 ± 0.30 h
Vd ([3]; intravenous, 2.0 mg/kg): 5.41 ± 0.77 L/kg
AUC(0-∞) ([3]; oral, 10 mg/kg): 3475 ± 547 ng·h/mL
Cmax ([3]; oral, 10 mg/kg): 802 ± 149 ng/mL
F (absolute oral bioavailability) ([3]; oral, 10 mg/kg): 36.3%
T1/2 ([3]; oral, 10 mg/kg): 4.72 ± 0.24 h
disease progression in a collagen-induced arthritis model [4]: dose-dependent reduction of disease progression
tolerability, efficacy and safety in Phase-3 clinical trials [5]: well tolerated, showed efficacy and was found to be safe

C[C@@H]1CCN(C(=O)CC#N)C[C@@H]1N(C)c1ncnc2[nH]ccc12 [Tofacitinib, tofacitinib]
time primary stock solution found to be stable [2]: 50 days
toxicities (rheumatoid arthritis): dose-related toxicities
